Results taken from ChEMBL document CHEMBL4433252, “Bypassing lantibiotic resistance by an effective nisin derivative” (Bioorg Med Chem, 2019).
≈ marks a conversion by molar mass, not a printed value. Calls of active or inactive are those of the source. The rule behind the calls is not given here.

Columns and labels:
[1] = system: Lactococcus lactis; experiment: Growth inhibition of Lactococcus lactis NZ9000 transfected with pNZ-Erm plasmid incubated for 5 hrs by spectrophotometry; assay type: functional, organism-based; conditions: NZ9000, 5 h
[2] = system: Lactococcus lactis; experiment: (§1) Resistance index, ratio of IC50 for growth inhibition of Lactococcus lactis NZ9000 transfected with Streptococcus agalactiae COH1 NSR S236A mutant incubated for 5 hrs by spectrophotometry to IC50 for growth inhibition of Lactococcus lactis NZ9000 transfected with pNZ-Erm plasmid incubated for 5 hrs by spectrophotometry; assay type: functional
[3] = system: Enterococcus faecalis; experiment: Antibacterial activity against Enterococcus faecalis ATCC 29212 assessed as reduction in cell viability incubated overnight; assay type: functional
[4] = system: Enterococcus faecalis; experiment: Potency index, ratio of MIC for nisin to MIC for test compound for antibacterial activity against Enterococcus faecalis ATCC 29212 assessed as reduction in cell viability incubated overnight; assay type: functional
[5] = system: Lactococcus lactis; experiment: as §1, with “NSR” for “NSR S236A mutant”; assay type: functional
[6] = system: Staphylococcus aureus; experiment: Antibacterial activity against Staphylococcus aureus ATCC 29213 assessed as reduction in cell viability incubated overnight; assay type: functional
[7] = system: Lactococcus lactis; experiment: Growth inhibition of Lactococcus lactis NZ9000 transfected with Streptococcus agalactiae COH1 NSR incubated for 5 hrs by spectrophotometry; assay type: functional, organism-based; conditions: NZ9000, 5 h
[8] = system: Lactococcus lactis; experiment: Growth inhibition of Lactococcus lactis NZ9000 transfected with Streptococcus agalactiae COH1 NSR S236A mutant incubated for 5 hrs by spectrophotometry; assay type: functional, organism-based; conditions: NZ9000, 5 h
[9] = system: Staphylococcus aureus; experiment: Potency index, ratio of MIC for nisin to MIC for test compound for antibacterial activity against Staphylococcus aureus ATCC 29213 assessed as reduction in cell viability incubated overnight; assay type: functional
[10] = system: Lactococcus lactis; experiment: Induction of pore formation in Lactococcus lactis NZ9000 transfected with Streptococcus agalactiae COH1 NSR assessed as increase in florescence intensity at 30 nM measured after 100 secs by sytox green-based fluorescence assay; assay type: functional, organism-based

C=C(NC(=O)[C@@H](NC(=O)[C@H](Cc1cnc[nH]1)NC(=O)[C@@H](NC(=O)[C@H](CO)NC(=O)[C@@H]1CCCN1C(=O)[C@H](Cc1cnc[nH]1)NC(=O)[C@@H]1CS[C@@H](C)[C@H](NC(=O)[C@H](CCCCN)NC(=O)[C@H](CCSC)NC(=O)[C@H](CC(N)=O)NC(=O)[C@@H]2CS[C@@H](C)[C@H](NC(=O)[C@H](CCCCN)NC(=O)[C@@H]3CS[C@@H](C)[C@H](NC(=O)[C@@H]4CSC[C@H](NC(=O)/C(=C/C)NC(=O)[C@@H](N)[C@@H](C)CC)C(=O)N[C@@H]([C@@H](C)CC)C(=O)NC(=C)C(=O)N[C@@H](CC(C)C)C(=O)N4)C(=O)N4CCC[C@H]4C(=O)NCC(=O)N3)C(=O)NCC(=O)N[C@@H](C)C(=O)N[C@@H](CC(C)C)C(=O)N[C@@H](CCSC)C(=O)NCC(=O)N2)C(=O)N[C@@H](C)C(=O)N[C@@H](CC)C(=O)N1)[C@@H](C)CC)C(C)C)C(=O)N[C@@H](CCCCN)C(=O)O
IC50 [1]: 5.5 nM | Ratio IC50 [2]: 3.5 | MIC [3]: 10.6 µM (≈ 35.6 µg/mL) | Ratio [4]: 7.8 | Ratio IC50 [5]: 3.5 | MIC [6]: 10.6 µM (≈ 35.6 µg/mL) | IC50 [7]: 22.5 nM | IC50 [8]: 24.1 nM | Ratio [9]: 7.8 | Activity [10]: Active
